Experimental data reported in PMC11515993, “ZSTK474 targeting PIK3R3 inhibits the Wilms’ tumor through G0 / G1 phase arrest” (PLOS ONE, 2024).

Columns and labels:
WT-CLS1 cells [1] = experiment: CCK-8 cell proliferation assay (IC50); type: cell-based; details: 48-hour treatment
Description: (§1) The assessment of cell proliferation was conducted utilizing the CCK-8 assay sourced from MCE (HY-K0301, USA). Following detachment utilizing 0.25% trypsin, WiT49 (2.5×10^3) and WT-CLS1 (3×10^3) cells were cultured in 96-well plates. Following adhesion, cells were subjected to varying doses of ZSTK474 (0–32 μM) for a duration of 48 hours. Following a 2-hour incubation with culture medium (90 μL) and CCK-8 reagent (10 μL) at 37°C, the measurement of the absorbance at 450 nm was conducted to measure the IC50 value of ZSTK474. Following this, the cells were treated with ZSTK474 at concentrations equivalent to 1/2, 1, and 2 times the IC50 value. Growth curves were subsequently plotted at 0, 24, 48, and 72 hours post-incubation.

WiT49 cells [2] = experiment: CCK-8 cell proliferation assay (IC50); type: cell-based; details: 48-hour treatment
Description: as §1

WiT49 and WT-CLS1 cells [3] = experiment: CCK-8 growth curves; type: cell-based; details: 1/2, 1 and 2 times IC50; 0, 24, 48, 72 hours
Description: as §1

[4] = In vivo safety in WiT49 tumor-bearing mice (body weight, blood and serum tests, organ HE staining); details: two weeks; for ALT / AST / BUN / CK / CRE: tumor-bearing nude mice
Description: (§2) The in vivo experiments were approved by the Institutional Animal Care and Use Committee of Chongqing Medical University (approval number: CHCMU-IACUC20220323001). After being sourced from the Animal Research Center at Chongqing Medical University, BALB/C nude mice (male, 3 weeks old) were housed in stainless steel cages in a ventilated animal room. The room temperature in the housing facility was maintained at 24°C, with a relative humidity of 60% and a 12-h light/dark cycle. Distilled water and sterilized food were available ad libitum. The mice were acclimated for a week. Injection of 2×10^6 WiT49 cells, suspended in 100μL of DMEM, into the left axilla of the mice was used to induce subcutaneous nephroblastoma xenograft tumors. Once the tumor volume reached 90–100 mm^3, the mice were segregated into four groups (n = 6 in each group). Except for one control group that was given PBS, three groups were given daily doses of ZSTK474 (MCE, China) at 25, 50, and 100 mg/kg over a two-week period. Tumor size and body weight of tumor-bearing mice were monitored throughout the study, and no mice died before meeting criteria for euthanasia. The mice were anaesthetised using 3% isoflurane, blood was taken from the eye socket and then executed by decapitation. Standard blood tests and serum analyses were performed to evaluate toxicity, focusing on liver, cardiac, and renal markers for tumor-bearing mice of each group. Tumor weights were recorded, and samples of various organs and tumors were collected for further analysis.
Fresh tumor samples were fixed in paraformaldehyde for 72 hours. The samples were processed through paraffin embedding and subsequently sectioned at a thickness of 4 μm. The subsequent procedures comprised hydration with xylene and alcohol, staining with hematoxylin and eosin, and dehydration through immersion in graded alcohol and xylene. Subsequently, images were acquired using light microscopy from Nikon, Japan.

[5] = system: WiT49 subcutaneous nephroblastoma xenograft tumors; experiment: Subcutaneous nephroblastoma xenograft tumor growth and tumor immunofluorescence; type: in vivo, BALB/C nude mice
Description: as §2, with “analysis. Following fixation in 4% paraformaldehyde for more than 24 hours, tumor tissues underwent dehydration and paraffin embedding and were then sectioned into 4-μm slices. The sections were then subjected to thermal antigen retrieval by treating them with sodium citrate buffer and subsequently exposing them to microwave radiation. Following dewaxing, the sections were blocked using 0.5% bovine serum albumin (BSA) and left to incubate with primary antibodies overnight at 4°C. […]” for “analysis.”

WiT49 and WT-CLS1 cells [6] = experiment: Wound healing (scratch) cell migration assay; type: cell-based; details: 0, 24, 48 hours, serum-free medium
Description: WT cells (2×10^5 cells per well) were cultured in 6-well plates in a 5% CO2 environment at 37°C until confluence was achieved. A consistent wound was generated on the cellular surface, and any detached cells were eliminated using PBS. After this, WiT49 and WT-CLS1 cells were subjected to varying concentrations of ZSTK474 in a serum-free DEME medium. After a 48-hour incubation, cell migration was assessed at 0, 24, and 48 hours under a Nikon microscope. The scratch width measurement was performed using ImageJ.

WiT49 and WT-CLS1 cells [7] = experiment: Transwell cell invasiveness assay; type: cell-based; details: 24 and 48 hours
Description: The assessment of cell invasiveness was performed through a Transwell assay on plates coated with matrix gel. When seeded on plates, WiT49 and WT-CLS1 cells were positioned in the […] with a 10% FBS medium, while different concentrations of ZSTK474 in a serum-free medium were placed in the upper chamber. Cells were fixed and stained with crystal violet after 24 and 48 hours of treatment. Cell invasiveness was quantified using ImageJ software while observing under a light microscope.

WT-CLS1 cells [8] = experiment: Annexin V apoptosis flow cytometry; type: cell-based; details: WT-CLS1, 48 hours, IC50 dose
Description: (§3) The assessment of apoptosis was carried out using the Annexin V Apoptosis Kit (BDPharmingen, 5565547, USA). WiT49 and WT-CLS1 cells were cultured in 6-well plates for 12 hours. Subsequently, they were exposed to different concentrations of ZSTK474 for 48 hours and then analyzed using flow cytometry. FlowJo 10.8.1 software was utilized for data analysis.

WiT49 cells [9] = experiment: Annexin V apoptosis flow cytometry; type: cell-based; details: WiT49, 48 hours, IC50 dose
Description: as §3

WiT49 and WT-CLS1 cells [10] = experiment: TUNEL assay; type: cell-based; details: 48 hours, low, medium and high dose
Description: In WT cells, apoptosis-induced DNA damage was identified through TUNEL staining in the low, medium, and high-dose intervention groups. After a 12-hour incubation in 24-well plates, cells were treated with varying concentrations of ZSTK474 for 48 hours. The cells were then subjected to TUNEL staining according to the manufacturer’s instructions. The cell nuclei were counterstained with DAPI and then mounted utilizing an anti-fade mounting medium. The Nikon C2 microscope was employed for image acquisition.

WiT49 and WT-CLS1 cells [11] = experiment: Cell cycle assay by flow cytometry; type: cell-based; details: different concentrations, 48 hours
Description: The assessment of cell cycle progression after exposure to different concentrations of ZSTK474 was conducted using the BD Cell Cycle Assay Kit from Dojindo, Japan. In accordance with standardized procedures, WT-CLS1 and WiT49 cells were cultured for 48 hours, then fixed in 75% ethanol for an additional 48 hours. Following this, the cells were centrifuged, resuspended twice in PBS, and stained with propidium iodide and RNase at 37°C for 30 minutes. Lastly, cell cycle distribution was assessed through flow cytometry.

WiT49 and WT-CLS1 cells [12] = experiment: Western blot of treated WT cells; type: cell-based
Description: The protein lysis solution containing 1% PMSF was used to lyse both WiT49 and WT-CLS1 cells treated with ZSTK474. After centrifugation at 12000g for 20 minutes, the protein content was quantified using a BCA assay kit (Thermo, China). Subsequently, 10 μg of protein underwent electrophoresis on a 6%-12.5% SDS-PAGE gel (EpiZyme, China) and was then transferred to a PVDF membrane (Millipore, ISEQ00010, USA) via semi-dry electrotransfer. After three TBST washes, the PVDF membranes were exposed to primary antibodies (Akt, MMP2, MMP9, PI3K, p-PI3K, p-Akt, PCNA, VEGF, P21, CyclinD, CDK4, GAPDH from ZENBIO, Chengdu, China; PIK3R3 from Proteintech, Wuhan, China) overnight at a 1:1000 dilution and 4°C. After being washed three times in TBST, the PVDF membrane was incubated with secondary antibodies (1:20000, ZENBIO, China) for one hour at room temperature. The Bio-RAD analyzer and Image Lab software were utilized for imaging and analysis.

WT-CLS1 cells [13] = experiment: RT-PCR of NRG4, CDKN1A, FGF18, PIK3R3, PDGFRB; type: cell-based; details: among the five genes
Description: Total RNA was extracted from WiT49 and WT-CLS1 cells utilizing TRIzol reagent (Invitrogen, CA, USA) and subsequently subjected to RT-PCR following the protocols of RTMasterMix (MCE, NJ, USA). Utilizing the SYBR Green RT-PCR Master Mix from MCE in NJ, USA, mRNA quantification was conducted on the Bio-Rad CFX ConnectTM Real-Time System. The relative expressions of NRG4, CDKN1A, FGF18, PIK3R3, and PDGFRB were measured using GAPDH as the internal reference gene.

[14] = set-up: method as in PMID 16622124; details: chronic oral administration, 800 mg/kg, cited from earlier work

Q: With `FC(F)c1nc2ccccc2n1-c1nc(N2CCOCC2)nc(N2CCOCC2)n1` [ZSTK474] as the molecule, how does the IC50 (WT-CLS1 cells [1]) read?
A: Its IC50 is 2.51 µM.

Q: What about the IC50 (WiT49 cells [2]) of the same molecule?
A: The IC50 was 2 µM.

Q: What about the “cell growth (proliferation curve)” value (WiT49 and WT-CLS1 cells [3]) of the same molecule?
A: Its value is “dose-dependent suppression of cell growth”.

Q: And the ALT ([4]; 25 mg/kg daily)?
A: Its ALT is 69.7(44.7–96.9).

Q: What about the AST ([4]; 25 mg/kg daily) of the same molecule?
A: Its AST is 117.5 (95.8–153.7).

Q: And the BUN ([4]; 25 mg/kg daily)?
A: Its BUN is 8.3(5.6–10.6).

Q: And the CK ([4]; 25 mg/kg daily)?
A: Its CK is 1084.2 (1029.0–1145.0).

Q: And the CRE ([4]; 25 mg/kg daily)?
A: The CRE was 13.0(11.0–15.0).

Q: And the ALT ([4]; 50 mg/kg daily)?
A: Its ALT is 62.6(48.1–88.2).

Q: And the AST ([4]; 50 mg/kg daily)?
A: Its AST is 126.1 (99.4–174.1).

Q: What about the BUN ([4]; 50 mg/kg daily) of the same molecule?
A: Its BUN is 7.7(5.1–10.8).

Q: And the CK ([4]; 50 mg/kg daily)?
A: Its CK is 1009.5 (793.0–1141.0).

Q: What about the CRE ([4]; 50 mg/kg daily) of the same molecule?
A: The CRE was 12.7(11.0–14.0).

Q: What about the ALT ([4]; 100 mg/kg daily) of the same molecule?
A: The ALT was 60.6(50.4–76.5).

Q: And the AST ([4]; 100 mg/kg daily)?
A: Its AST is 130.4 (97.7–173.1).

Q: And the BUN ([4]; 100 mg/kg daily)?
A: The BUN was 7.3(5.1–10.1).

Q: And the CK ([4]; 100 mg/kg daily)?
A: The CK was 952.5 (637.0–1135.0).

Q: What about the CRE ([4]; 100 mg/kg daily) of the same molecule?
A: Its CRE is 12.5(10.0–15.0).

Q: What about the “hematological indices and organ pathology examination vs control” value ([4]; 25, 50, 100 mg/kg daily) of the same molecule?
A: The value was “no notable variances”.

Q: And the “post-administration body weight changes vs PBS control” value ([4]; 25, 50, 100 mg/kg daily)?
A: Its value is “no significant differences”.

Q: What about the “levels of PCNA, MMP2, MMP9 and VEGF in tumor tissues (immunofluorescence)” value ([5]; 25, 50 and 100 mg/kg) of the same molecule?
A: The value was “markedly reduced”.

Q: And the “subcutaneous tumor volume vs control” value ([5]; day 5, high-dose treatment group)?
A: Its value is “initial reductions in tumor volume”.

Q: What about the “subcutaneous tumor volume vs control” value ([5]; day 11, treatment group) of the same molecule?
A: Its value is “notable reduction in tumor volumes”.

Q: And the “cell migration (scratch assay)” value (WiT49 and WT-CLS1 cells [6])?
A: Its value is “reduced migration rates”.

Q: And the “invasion capacity (Transwell)” value (WiT49 and WT-CLS1 cells [7])?
A: The value was “decrease in invasion capacity”.

Q: And the “rise in apoptotic cells compared to the controls” value (WT-CLS1 cells [8])?
A: Its value is “below 10%”.

Q: What about the “rise in apoptotic cells compared to the controls” value (WiT49 cells [9]) of the same molecule?
A: Its value is 20%.

Q: What about the “apoptosis-induced DNA damage (TUNEL)” value (WiT49 and WT-CLS1 cells [10]) of the same molecule?
A: The value was “late apoptotic DNA damage response”.

Q: And the “percentage of cells in the G0/G1 phase” value (WiT49 and WT-CLS1 cells [11])?
A: The value was “significant rise in the percentage of cells in the G0/G1 phase”.

Q: And the “expression levels of PCNA, MMP2, MMP9 and VEGF (Western blot)” value (WiT49 and WT-CLS1 cells [12]; WT cells)?
A: Its value is “lowered expression levels”.

Q: And the “p-PI3K/PI3K and p-Akt/Akt (Western blot)” value (WiT49 and WT-CLS1 cells [12]; WT cells)?
A: The value was “reduced levels”.

Q: And the “P21 expression (Western blot)” value (WiT49 and WT-CLS1 cells [12]; WiT49 and WT-CLS1)?
A: Its value is “elevation in P21 expression”.

Q: What about the “cyclin D and CDK4 levels (Western blot)” value (WiT49 and WT-CLS1 cells [12]; WiT49 and WT-CLS1) of the same molecule?
A: Its value is “reduction in cyclin D and CDK4 levels”.

Q: What about the “PIK3R3 RNA level (RT-PCR)” value (WT-CLS1 cells [13]) of the same molecule?
A: The value was “most pronounced downregulation”.

Q: And the weight loss ([14]; by day 28)?
A: The weight loss was 14%.

Q: And the dermal toxicity ([14]; more than 28 days)?
A: Its dermal toxicity is “did not result in any dermal toxicity”.

Q: And the “toxic damage to vital organs” value ([14]; more than 28 days)?
A: The value was “no evidence of toxic damage to vital organs”.
